Source: publication PMC5431190, “Investigation of cationicity and structure of pseudin-2 analogues for enhanced bacterial selectivity and anti-inflammatory activity” (Scientific Reports, 2017)
Values after ≈ are worked out from the molar mass of the structure shown. Like-named read-outs stand apart in the source and are kept apart here. Residues, ends and D or L forms follow the SMILES beside them.

What was measured:
[1] = test system: S. aureus 3126(R) (MRSA 3126); type: cell-based, Staphylococcus aureus; settings: multidrug-resistant strain; 1% peptone media, 16 h at 37 °C
[2] = test system: S. aureus 3108(R) (MRSA 3108); type: cell-based, Staphylococcus aureus; settings: multidrug-resistant strain; 1% peptone media, 16 h at 37 °C
[3] = test system: S. aureus 3089(R) (MRSA 3089); type: cell-based, Staphylococcus aureus; settings: multidrug-resistant strain; 1% peptone media, 16 h at 37 °C
[4] = test system: human red blood cells (hRBCs); assay: Haemolytic activity; type: cell-based
Protocol: Peptide-induced lysis of human red blood cells (hRBCs) was determined as follows. Fresh hRBCs were washed 2–3 times with phosphate-buffered saline (PBS) by centrifugation for 5 min at 2500 rpm at 4 °C. Peptides in PBS were incubated with 4% (v/v) hRBCs for 1 h at 37 °C. Samples were then centrifuged for 5 min at 1000 × g. The absorbance of the supernatant at 405 nm was used as a measure of haemolysis. As a positive control, 100% haemolysis was obtained by treating hRBCs with 0.1% Triton X-100.

[5] = test system: Salmonella typhimurium KCTC 1926; type: cell-based
Description: (§1) Four Gram-negative bacteria species (Escherichia coli KCTC 1682, Acinetobacter baumannii KCTC 2508, Pseudomonas aeruginosa KCTC 1637 and Salmonella typhimurium KCTC 1926) and three Gram-positive bacteria species (Staphylococcus aureus KCTC 1621, Bacillus subtilis KCTC 3028 and Staphylococcus epidermidis KCTC 1917) were procured from the Korean Collection for Type Cultures (KCTC). Multi-drug-resistant Gram-negative bacteria (Salmonella typhimurium CCARM 8003 and 8007, Escherichia coli CCARM 1229 and 1238, Pseudomonas aeruginosa CCARM 2002 and 2095 and Acinetobacter baumannii CCARM 12035 and 12036) were obtained from the Culture Collection of Antibiotic-Resistant Microbes (CCARM). To determine MICs, bacteria were cultured in Luria-Bertani (LB) medium for overnight at 37 °C. An aliquot of the culture was incubated in 1% peptone media at 37 °C until mid-log phase. 100 μl of serial 2-fold diluted peptides were treated in 96 well plates and added to 100 μl of 2 × 10^6 CFU/ml bacterial suspensions in 1% peptone media for 16 h at 37 °C.

[6] = test system: Salmonella typhimurium CCARM 8003 (MDRST 8003); type: cell-based; settings: multidrug-resistant strain; 1% peptone media, 16 h at 37 °C
Description: as §1

[7] = test system: Pseudomonas aeruginosa CCARM 2002 (MDRPA 2002); type: cell-based; settings: multidrug-resistant strain; 1% peptone media, 16 h at 37 °C
Description: as §1

[8] = test system: Escherichia coli KCTC 1682; type: cell-based
Description: as §1

[9] = test system: Acinetobacter baumannii CCARM 12036 (MDRAB 12036); type: cell-based; settings: multidrug-resistant strain; 1% peptone media, 16 h at 37 °C
Description: as §1

[10] = test system: Escherichia coli CCARM 1238 (MDREC 1238); type: cell-based; settings: multidrug-resistant strain; 1% peptone media, 16 h at 37 °C
Description: as §1

[11] = test system: Acinetobacter baumannii KCTC 2508; type: cell-based
Description: as §1

[12] = test system: Escherichia coli CCARM 1229 (MDREC 1229); type: cell-based; settings: multidrug-resistant strain; 1% peptone media, 16 h at 37 °C
Description: as §1

[13] = test system: Bacillus subtilis KCTC 3028; type: cell-based
Description: as §1

[14] = test system: Salmonella typhimurium CCARM 8007 (MDRST 8007); type: cell-based; settings: multidrug-resistant strain; 1% peptone media, 16 h at 37 °C
Description: as §1

[15] = test system: Pseudomonas aeruginosa KCTC 1637; type: cell-based
Description: as §1

[16] = test system: Staphylococcus epidermidis KCTC 1917; type: cell-based
Description: as §1

[17] = test system: Acinetobacter baumannii CCARM 12035 (MDRAB 12035); type: cell-based; settings: multidrug-resistant strain; 1% peptone media, 16 h at 37 °C
Description: as §1

[18] = test system: Pseudomonas aeruginosa CCARM 2095 (MDRPA 2095); type: cell-based; settings: multidrug-resistant strain; 1% peptone media, 16 h at 37 °C
Description: as §1

[19] = test system: Gram-positive bacteria (S. aureus, B. subtilis, S. epidermidis); type: cell-based
Description: as §1

[20] = test system: Staphylococcus aureus KCTC 1621; type: cell-based
Description: as §1

[21] = test system: Gram-negative bacteria (E. coli, A. baumannii, P. aeruginosa, S. typhimurium); type: cell-based
Description: as §1

CC[C@H](C)[C@H](NC(=O)CNC(=O)[C@H](CCC(N)=O)NC(=O)[C@H](Cc1ccccc1)NC(=O)[C@@H](NC(=O)[C@H](CCCCN)NC(=O)[C@H](CCCCN)NC(=O)[C@H](CC(C)C)NC(=O)[C@H](C)NC(=O)[C@H](CC(N)=O)NC(=O)[C@H](CC(C)C)NC(=O)CN)C(C)C)C(=O)N[C@@H](Cc1c[nH]cn1)C(=O)N[C@@H](CCCCN)C(=O)N[C@@H](C)C(=O)N[C@H](C(=O)N[C@@H](CCCCN)C(=O)N[C@@H](CCCCN)C(=O)N[C@H](C(=O)N[C@@H](CC(N)=O)C(=O)N[C@@H](CC(N)=O)C(=O)N[C@@H](Cc1c[nH]cn1)C(=O)N[C@H](C(=O)N[C@@H](CCC(N)=O)C(=O)O)C(C)C)[C@@H](C)CC)[C@@H](C)CC [Ps-K14-K18] (H-GLNALKKVFQGIHKAIKKINNHVQ-OH)
MIC, MRSA 3126 [1]: 4 µM (≈ 10.8 µg/mL) | MIC, MRSA 3108 [2]: 4 µM (≈ 10.8 µg/mL) | MIC, MRSA 3089 [3]: 8 µM (≈ 21.6 µg/mL) | MHC (minimal peptide concentration that produces haemolysis) ([4]; red cells of human, 1 h): 100 µM | haemolysis at 100 μM ([4]; red cells of human, 1 h, 100): 1.1% | MIC, S. typhimurium ([5]; KCTC 1926, 16 h): 2 µM (≈ 5.4 µg/mL) | MIC, MDRST 8003 [6]: 4 µM (≈ 10.8 µg/mL) | MIC, MDRPA 2002 [7]: 2 µM (≈ 5.4 µg/mL) | MIC, E. coli ([8]; KCTC 1682, 16 h): 1 µM (≈ 2.7 µg/mL) | MIC, MDRAB 12036 [9]: 2 µM (≈ 5.4 µg/mL) | MIC, MDREC 1238 [10]: 2 µM (≈ 5.4 µg/mL) | MIC, A. baumannii ([11]; KCTC 2508, 16 h): 2 µM (≈ 5.4 µg/mL) | MIC, MDREC 1229 [12]: 2 µM (≈ 5.4 µg/mL) | MIC, B. subtilis ([13]; KCTC 3028, 16 h): 8 µM (≈ 21.6 µg/mL) | MIC, MDRST 8007 [14]: 4 µM (≈ 10.8 µg/mL) | MIC, P. aeruginosa ([15]; KCTC 1637, 16 h): 2 µM (≈ 5.4 µg/mL) | MIC, S. epidermidis ([16]; KCTC 1917, 16 h): 16 µM (≈ 43.2 µg/mL) | MIC, MDRAB 12035 [17]: 2 µM (≈ 5.4 µg/mL) | MIC, MDRPA 2095 [18]: 4 µM (≈ 10.8 µg/mL) | Average MIC, Gram-positive ([19]; 16 h): 10.67 µM | MIC, S. aureus ([20]; KCTC 1621, 16 h): 8 µM (≈ 21.6 µg/mL) | Average MIC, Gram-negative ([21]; 16 h): 1.75 µM

CC[C@H](C)[C@H](NC(=O)[C@H](C)NC(=O)[C@H](CCC(=O)O)NC(=O)[C@H](Cc1c[nH]cn1)NC(=O)[C@@H](NC(=O)[C@@H]1CCCN1C(=O)[C@H](CCC(N)=O)NC(=O)[C@H](Cc1ccccc1)NC(=O)[C@@H](NC(=O)[C@H](CCCCN)NC(=O)[C@H](CCCCN)NC(=O)[C@H](CC(C)C)NC(=O)[C@H](C)NC(=O)[C@H](CC(N)=O)NC(=O)[C@H](CC(C)C)NC(=O)CN)C(C)C)[C@@H](C)CC)C(=O)N[C@@H](CCCCN)C(=O)N[C@@H](CCCCN)C(=O)N[C@H](C(=O)N[C@@H](CC(N)=O)C(=O)N[C@@H](CC(N)=O)C(=O)N[C@@H](Cc1c[nH]cn1)C(=O)N[C@H](C(=O)N[C@@H](CCC(N)=O)C(=O)O)C(C)C)[C@@H](C)CC [Ps-K18-P] (H-GLNALKKVFQPIHEAIKKINNHVQ-OH)
MIC, MRSA 3126 [1]: >64 µM | MIC, MRSA 3108 [2]: 64 µM (≈ 175 µg/mL) | MIC, MRSA 3089 [3]: 64 µM (≈ 175 µg/mL) | haemolysis at 400 μM ([4]; 400 μM peptide, 4% hRBCs, PBS, 1 h at 37 °C, 100% = 0.1% Triton X-100): 0.1% | MHC (minimal peptide concentration that produces haemolysis) ([4]; 4% (v/v) hRBCs in PBS, 1 h at 37 °C, absorbance 405 nm, printed in both Gram-negative and Gram-positive sections): 400 µM | MIC, S. typhimurium ([5]; standard strain KCTC 1926, 1% peptone media, 16 h at 37 °C, three independent experiments in triplicate, SD 14.0%): 16 µM (≈ 43.8 µg/mL) | MIC, MDRST 8003 [6]: 16 µM (≈ 43.8 µg/mL) | MIC, MDRPA 2002 [7]: 16 µM (≈ 43.8 µg/mL) | MIC, E. coli ([8]; standard strain KCTC 1682, 2-fold dilutions, 1% peptone media, 2 × 10^6 CFU/ml suspension, 16 h at 37 °C, three independent experiments in triplicate, SD 14.0%): 16 µM (≈ 43.8 µg/mL) | MIC, MDRAB 12036 [9]: 16 µM (≈ 43.8 µg/mL) | MIC, MDREC 1238 [10]: 16 µM (≈ 43.8 µg/mL) | MIC, A. baumannii ([11]; standard strain KCTC 2508, 1% peptone media, 16 h at 37 °C, three independent experiments in triplicate, SD 14.0%): 16 µM (≈ 43.8 µg/mL) | MIC, MDREC 1229 [12]: 32 µM (≈ 87.7 µg/mL) | MIC, B. subtilis ([13]; standard strain KCTC 3028, 1% peptone media, 16 h at 37 °C, three independent experiments in triplicate, SD 14.0%): 64 µM (≈ 175 µg/mL) | MIC, MDRST 8007 [14]: 16 µM (≈ 43.8 µg/mL) | MIC, P. aeruginosa ([15]; standard strain KCTC 1637, 1% peptone media, 16 h at 37 °C, three independent experiments in triplicate, SD 14.0%): 8 µM (≈ 21.9 µg/mL) | MIC, S. epidermidis ([16]; standard strain KCTC 1917, 1% peptone media, 16 h at 37 °C, three independent experiments in triplicate, SD 14.0%): 64 µM (≈ 175 µg/mL) | MIC, MDRAB 12035 [17]: 16 µM (≈ 43.8 µg/mL) | MIC, MDRPA 2095 [18]: 16 µM (≈ 43.8 µg/mL) | Average MIC, Gram-positive ([19]; average over the three Gram-positive standard strains): 64 µM | MIC, S. aureus ([20]; standard strain KCTC 1621, 1% peptone media, 16 h at 37 °C, three independent experiments in triplicate, SD 14.0%): 64 µM (≈ 175 µg/mL) | Average MIC, Gram-negative ([21]; average over the four Gram-negative standard strains): 14 µM
